Consider ten compounds from patent US20180237441A1, “Chemical Compounds” (GlaxoSmithKline Intellectual Property (No.2) Limited, priority 2015, published 2018).

Like-named read-outs stand apart in the source and are kept apart here.

The assay deals with T1, PERK (Homo sapiens, UniProt Q9NZJ5).
T1 sequence (Q9NZJ5 30-1116): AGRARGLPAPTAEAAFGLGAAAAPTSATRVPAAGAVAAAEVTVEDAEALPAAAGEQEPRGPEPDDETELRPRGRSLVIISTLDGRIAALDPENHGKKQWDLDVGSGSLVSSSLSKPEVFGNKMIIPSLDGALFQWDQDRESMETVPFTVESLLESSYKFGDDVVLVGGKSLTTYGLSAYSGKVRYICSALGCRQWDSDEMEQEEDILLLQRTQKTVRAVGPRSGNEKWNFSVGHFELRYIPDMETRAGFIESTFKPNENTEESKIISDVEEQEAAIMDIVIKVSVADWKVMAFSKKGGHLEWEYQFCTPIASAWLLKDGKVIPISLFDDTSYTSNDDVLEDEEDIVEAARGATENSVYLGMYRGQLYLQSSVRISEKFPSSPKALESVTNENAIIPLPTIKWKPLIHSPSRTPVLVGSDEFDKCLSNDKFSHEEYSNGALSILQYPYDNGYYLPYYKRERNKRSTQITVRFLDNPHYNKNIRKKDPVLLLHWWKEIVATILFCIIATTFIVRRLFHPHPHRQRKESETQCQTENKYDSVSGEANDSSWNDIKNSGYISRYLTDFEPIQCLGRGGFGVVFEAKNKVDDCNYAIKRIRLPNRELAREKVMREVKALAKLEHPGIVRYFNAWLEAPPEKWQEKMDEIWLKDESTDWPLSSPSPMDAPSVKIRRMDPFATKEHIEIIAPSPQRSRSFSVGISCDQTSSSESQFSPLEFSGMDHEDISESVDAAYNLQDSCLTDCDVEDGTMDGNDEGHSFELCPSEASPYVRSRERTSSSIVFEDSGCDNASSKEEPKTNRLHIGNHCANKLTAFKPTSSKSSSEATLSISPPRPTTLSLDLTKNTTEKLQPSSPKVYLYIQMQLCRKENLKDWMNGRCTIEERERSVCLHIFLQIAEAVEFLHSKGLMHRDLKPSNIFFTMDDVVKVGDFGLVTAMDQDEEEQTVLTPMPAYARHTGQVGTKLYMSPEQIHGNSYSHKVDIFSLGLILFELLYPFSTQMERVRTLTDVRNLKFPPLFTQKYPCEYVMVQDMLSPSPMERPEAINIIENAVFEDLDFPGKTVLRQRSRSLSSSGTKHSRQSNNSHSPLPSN
The experiment in a line: PERK enzyme assay (HTRF). The class given is biochemical. To be noted: at least one experimental run. As for the experimental part: Compounds of the invention were assayed for PERK enzyme inhibitory activity with modifications to previously reported conditions (Axten et al. J. Med. Chem., 2012, 55, 7193-7207). Briefly, various concentrations of compounds (maximum 1% DMSO) were dispensed into 384-well plates containing GST-PERK enzyme. After 30-60 minutes of compound pre-incubation, ATP and biotin-eIF2α were added and after 60 minutes the reaction was quenched. After 2 hrs, a fluorescence plate reader was used to measure inhibition and IC50s were calculated.
Enzyme Assay Protocol for PKR-Like Endoplasmic Reticulum Kinase (PERK)—HTRF —% Inhibition
Assay Buffer contains HEPES (pH7.5) 10 mM, CHAPS 2 mM, MgCl2 5 mM and DTT 1 mM in water
Detection Buffer contains HEPES (pH7.5) 10 mM and CHAPS 2 mM in water Assay Plate Preparation:
1. Enzyme Preparation: • 4× Enzyme solution was prepared immediately prior to adding to compound plates. • 3 nM of GST-PERK in Assay buffer. Final [PERK] in 10 μl assay volume=0.75 nM
2. Substrate Preparation: • 4× Substrate solution was prepared immediately prior to adding to compound plates. • 4× Substrate solution in assay buffer 2000 μM ATP and 160 nM Biotin-eIF2α • Final [ATP] in 10 μl assay volume=500 μM • Final [biotin-eIF2a] in 10 μl assay volume=40 nM.
3. Quench/Detection Solution: • 16 nM eIF2 Phospho-Antibody • 16 nM Eu anti-Rabbit IgG • 160 nM Streptavidin-APC • 60 mM EDTA • Final concentration in 10 μL assay volume: 4 nM eIF2 Phospho-Antibody, 4 nM Eu anti-Rabbit IgG 40 nM Streptavidin-APC
The activity of compounds in the PERK enzyme assay was determined at PERK Enzyme (500 μM ATP) IC50 (nM).
For orientation: Time-resolved FRET reads energy transfer from a long-lived donor to a nearby acceptor.

Setting [1] is: PERK Enzyme (500 μM ATP) IC50, read-out: PERK Activity.

In the case of `CN1C(=O)N(c2ccc(-c3cn(C)c4ncnc(N)c34)c(F)c2)CC1c1cc(F)cc(F)c1` (single isomer, unassigned) [Example 101, 1-(4-(4-amino-7-methyl-7H-pyrrolo[2,3-d]pyrimidin-5-yl)-3-fluorophenyl)-4-(3,5-difluorophenyl)-3-methylimidazolidin-2-one], the IC50 under setting [1] lay in the range of 100 to 1000 nM. The same measure, in the same setting: for `COc1cccc(C2CN(c3ccc(-c4cn(C)c5ncnc(N)c45)c(F)c3)C(=O)N2C)c1` (single isomer, unassigned) [Example 103, 1-(4-(4-amino-7-methyl-7H-pyrrolo[2,3-d]pyrimidin-5-yl)-3-fluorophenyl)-4-(3-methoxyphenyl)-3-methylimidazolidin-2-one] the value was less than 100 nM; for `Cc1nc(N)c2c(-c3ccc(N4CC(c5cc(F)cc(F)c5)N(C)C4=O)cc3F)cn(C)c2n1` (single isomer, unassigned) [Example 104, 1-(4-(4-amino-2,7-dimethyl-7H-pyrrolo[2,3-d]pyrimidin-5-yl)-3-fluorophenyl)-4-(3,5-difluorophenyl)-3-methylimidazolidin-2-one], less than 100 nM; for `Cc1nc(N)c2c(-c3ccc(N4CC(c5cncc(F)c5)N(C)C4=O)cc3F)cn(C)c2n1` (single isomer, unassigned) [Example 111, 1-(4-(4-amino-2,7-dimethyl-7H-pyrrolo[2,3-d]pyrimidin-5-yl)-3-fluorophenyl)-4-(5-fluoropyridin-3-yl)-3-methylimidazolidin-2-one], 100 to 1000 nM. As to `Cc1nc(C2CN(c3ccc(-c4cn(C)c5ncnc(N)c45)c(F)c3)C(=O)N2C)ccc1F` (single isomer, unassigned) [Example 113, 1-(4-(4-amino-7-methyl-7H-pyrrolo[2,3-d]pyrimidin-5-yl)-3-fluorophenyl)-4-(5-fluoro-6-methylpyridin-2-yl)-3-methylimidazolidin-2-one], the IC50 under setting [1] is less than 100 nM. For the compound `CN1C(=O)N(c2ccc(-c3cn(C)c4ncnc(N)c34)c(F)c2)CC1c1ccc(F)c(F)c1` (single isomer, unassigned) [Example 115, 1-(4-(4-amino-7-methyl-7H-pyrrolo[2,3-d]pyrimidin-5-yl)-3-fluorophenyl)-4-(3,4-difluorophenyl)-3-methylimidazolidin-2-one], the IC50 (500 μM ATP, read-out: PERK Enzyme (500 μM ATP) IC50) was found to be 2.4 nM and the IC50 under setting [1] is less than 100 nM. With `CN1C(=O)N(c2ccc(-c3cn(C4CC4)c4ncnc(N)c34)c(F)c2)CC1c1ccc(F)c(F)c1` (single isomer, unassigned) [Example 116, 1-(4-(4-amino-7-cyclopropyl-7H-pyrrolo[2,3-d]pyrimidin-5-yl)-3-fluorophenyl)-4-(3,4-difluorophenyl)-3-methylimidazolidin-2-one], under setting [1], the IC50 is less than 100 nM. The same measure, in the same setting: with `CN1C(=O)N(c2ccc(-c3cn(C4CC4)c4ncnc(N)c34)c(F)c2)CC1c1ccc(F)c(F)c1` (single isomer, unassigned) [Example 117, 1-(4-(4-amino-7-cyclopropyl-7H-pyrrolo[2,3-d]pyrimidin-5-yl)-3-fluorophenyl)-4-(3,4-difluorophenyl)-3-methylimidazolidin-2-one] the figure was 100 to 1000 nM; with `CCN1C(=O)N(c2ccc(-c3cn(C4CC4)c4ncnc(N)c34)c(F)c2)CC1c1cc(F)ccc1F` (single isomer, unassigned) [Example 123, 1-(4-(4-amino-7-cyclopropyl-7H-pyrrolo[2,3-d]pyrimidin-5-yl)-3-fluorophenyl)-4-(2,5-difluorophenyl)-3-ethylimidazolidin-2-one], 100 to 1000 nM; with `CCN1C(=O)N(c2ccc(-c3cn(C4CC4)c4ncnc(N)c34)c(F)c2)CC1c1cc(F)ccc1F` (single isomer, unassigned) [Example 124, 1-(4-(4-amino-7-cyclopropyl-7H-pyrrolo[2,3-d]pyrimidin-5-yl)-3-fluorophenyl)-4-(2,5-difluorophenyl)-3-ethylimidazolidin-2-one], less than 100 nM.
